Laboratory results taken from patent US20250270251A1, “PROCESS FOR THE PREPARATION OF […] HAVING A DEFINITE PARTICLE SIZE DISTRIBUTION AND A IRREGULAR HEXAGON PLATES CRYSTAL HABIT” (F.I.S. - FABBRICA ITALIANA SINTETICI S.P.A., priority 2020, published 2025).

Assays:
Format in all cases: physicochemical
[1] = Microscopy analysis (SEM) for identification of crystal habit and size; settings: crystallized with a C2-C5 alkyl alcohol, examples 2 to 9
Procedure: The mean square weight means is determined by chord-length distribution analysis of Trenbolone Acetate of formula (I), in particular, was through by scanning electron microscopy (SEM).
Microscopy analysis: the solid of Trenbolone Acetate (I) was analysed by microscopy for identification of crystal habits.
Microscope was recorded with a Zeiss Evo MA10 scanning electron microscope. A sample of powder has been gold spattered and observed by SEM at different magnification, micrographs have been collected at same conditions and magnification (20 kV, HDBSD, Variable Pressure). All the samples have been observed after same treatment and same time after preparation.

[2] = DSC comparative study of crystal habits; settings: irregular hexagon plates versus non-irregular hexagon plates crystals; from DSC onset and peak
Procedure: DSC analysis was recorded with a Mettler DSC822e. A sample of compound was charged into a 40 μL aluminium crucible with a pinhole lid and was heated, under nitrogen (50 mL/min), at 10° C./min from 30 to 300° C.
DSC testing was performed in a sealed medium pressure stainless steel crucible. All the testing was performed by heating the sample from 30° C. at a rate of 10° C./minute up to a maximum temperature of 300° C.

[3] = Particle size distribution (PSD) with a Malvern Mastersizer 3000
Procedure: Particle size distribution (PSD): In particular, particle size distribution was determined with a Malvern Mastersizer 3000, and the other parameters used are reported in table below: […]

[4] = Example 12, crystallization from isopropanol, seed D10 4-12, D50 12-29, D90 <76 μm
[5] = Example 13, recrystallization from IPA, seed D10 2-5, D50 10-20, D90 25-51 μm

CC(=O)O[C@H]1CC[C@H]2[C@@H]3CCC4=CC(=O)CCC4=C3C=C[C@]12C [Compound (I), 17beta-acetoxy-estra-4,9,11-triene-3-one]
size range of thin irregular hexagon plates [1]: 20-200 micron | thermodynamic stability of the crystal habit [2]: thermodynamically more stable | PSD D50 ([3]; Example 2, crystallization from isopropanol, seeded at 20-25 °C): 67-130 μm | PSD D10 [3, 4]: 15-40 μm | PSD D50 [3, 4]: 67-130 μm | PSD D90 [3, 4]: 350 μm | PSD D10 [3, 5]: 15-40 μm | PSD D50 [3, 5]: 67-130 μm | PSD D90 [3, 5]: 300 μm
